Source: paper PMC8146397 (Nanomaterials, 2021)
Where “and” joins values, the source holds several entries; their conditions need not be identical. Equal entries are not always repeated.

What was measured:
Salmonella typhi strains = assay: Antibacterial activity, CFU count / sterilization rate; format: cell-based; conditions: Salmonella typhi 3 × 10^4 cells/ml, 3 h at 37 °C, CFU after 18 h
Procedure: After incubation, solidified LB agar plat was impregnated with 100 μL of the bacterial suspension.

[1] = In vivo pharmacokinetics after oral delivery (HPLC of plasma); conditions: mice
Procedure: Healthy mice weighing 30 g were kept in the primate facility with free access to food and water a day before the commencement of the experiment. The mice were divided into two groups (n = 5). […] Blood plasma was stored at −20 °C until further use.

[2] = In vitro dissolution / CIP release at pH 5.0 for 72 h; format: physicochemical
[3] = release kinetic model Ct = C0 + k0t
[4] = release kinetic model Mi/M∞ = Kth + b
[5] = release kinetic model logQ0 + Kit/2.3

For `O=C(O)c1cn(C2CC2)c2cc(N3CCNCC3)c(F)cc2c1=O` [CIP, Ciprofloxacin], the Sterilizing rate (Salmonella typhi strains) was 9 ± 3.25%, the “AUMC 0-inf” value [1] was 900.65 μg/mL × h^2 and 900.65 ± 1.57 μg/mL × h^2 and the “Zero Order K^0” value [2, 3] was 32.90. For the same molecule, the “Zero Order R^2” value [2, 3] was 0.5787 ± 2.57, the “Korsmeyer-Peppas N (release exponent n)” value [2, 4] was 0.502 and the “Korsmeyer-Peppas R2” value [2, 4] was 0.9370 ± 4.85. The “Higuchi KH” value ([2]; release kinetic model Q = KH√t) was 53.70, the “Higuchi R2” value ([2]; release kinetic model Q = KH√t) was 0.9360 ± 3.57 and the “First Order K1” value [2, 5] was 0.877. For the same molecule, the “First Order R^2” value [2, 5] was 0.9534 ± 1.57.
